Reference: patent US20160250285A1, “NEUROPROTECTIVE PEPTIDES” (priority 2013, published 2016)
Like-named read-outs stand apart in the source and are kept apart here. Square brackets hold non-standard residues; d marks the D form.

Experiments:
[1] = tested on: intracellular calcium influx in neuronal cultures; assay: Intracellular calcium influx (Fura-2 AM) after glutamic acid; assay type: cell-based, rat; details: peptide 5 μM for 10 min, removed before 100 μM glutamic acid (FIG. 44)
Experimental: Fura-2 AM was used for intracellular calcium assessment. Representative fluorescent Fura-2 AM tracers; fluorescence intensity (FI) of neuronal cultures 30 sec before and following addition (arrow) of glutamic acid (100 μM final concentration). Peptides or glutamate receptor blockers were added to neuronal cultures for 10 min and removed (time 0) before glutamic acid. Values are mean±SE; n=3. Peptide concentration was 5 μM.
Briefly, cortical tissue from E18-E19 Sprague-Dawley rats was dissociated in Dulbecco's modified Eagle medium (DMEM; Invitrogen, Australia) supplemented with 1.3 mM L-cysteine, 0.9 mM NaHCOa, 10 units/ml papain (Sigma, USA) and 50 units/ml DNase (Sigma) and washed in cold DMEM/10% horse serum. Neurons were resuspended in Neurobasal (Invitrogen) containing 2% B27 supplement (B27; Invitrogen). Before seeding, 96-well sized glass wells (6 mm diameter, ProTech, Australia) or 96-well plastic plates (ProSciTech, Australia) were coated with poly-D-lysine overnight (50 ml/well: 50 mg/mL; 70-150 K, Sigma). Excess poly-D-lysine solution was then removed and replaced with Neurobasal (containing 2% B27; 4% fetal bovine serum; 1% horse serum; 62.5 mM glutamate; 25 mM 2-mercaptoethanol; and 30 mg/mL streptomycin and 30 mg/mL penicillin). Neurons were plated to obtain ≈10,000 viable neurons for each well on day in vitro 11-12. Neuronal cultures were maintained in a CO2 incubator (5% CO2, 95% air balance, 98% humidity) at 37° C. On day in vitro 4 one third of the culture medium was removed and replaced with fresh Neurobasal/2% B27 containing the mitotic inhibitor, cytosine arabinofuraNOside (1 mM final concentration; Sigma). On day in vitro 8 one half of the culture medium was replaced with Neurobasal/2% B27. Cultures were used on day in vitro 11 or 12 after which time they routinely consist of >97% neurons and 1-3% astrocytes (Meloni et al. 2001).

[2] = tested on: primary cortical neuronal cultures; details: for neuroprotection when added immediately after glutamic acid exposure: 0 min post-insult (FIG. 1d); for neuroprotection when added 15 minutes post-insult: 15 min post-glutamic acid (FIG. 1d); for neuroprotection (neuronal viability): peptide 15 min prior to and during glutamic acid exposure, viability 24 h, MTS
Experimental: Briefly, cortical tissue from E18-E19 Sprague-Dawley rats was dissociated in Dulbecco's modified Eagle medium (DMEM; Invitrogen, Australia) supplemented with 1.3 mM L-cysteine, 0.9 mM NaHCOa, 10 units/ml papain (Sigma, USA) and 50 units/ml DNase (Sigma) and washed in cold DMEM/10% horse serum. Neurons were resuspended in Neurobasal (Invitrogen) containing 2% B27 supplement (B27; Invitrogen). Before seeding, 96-well sized glass wells (6 mm diameter, ProTech, Australia) or 96-well plastic plates (ProSciTech, Australia) were coated with poly-D-lysine overnight ([…]: 50 mg/mL; 70-150 K, Sigma). […] Neurons were plated to obtain ≈10,000 viable neurons for each well on day in vitro 11-12. […] On day in vitro 4 one third of the culture medium was removed and replaced with fresh Neurobasal/2% B27 containing the mitotic inhibitor, cytosine arabinofuraNOside (1 mM final concentration; Sigma). On day in vitro 8 one half of the culture medium was replaced with Neurobasal/2% B27.
(§1) To induce excitotoxicity, 50 μl of Neurobasal/2% B27 containing glutamic acid (200 μM) or kainic acid (400 μM) or NMDA (200 μM) was added to the culture wells (100 μM glutamic acid, 200 μM kainic acid and NMDA 100 μM final concentration). Cultures were incubated at 37° C. in the CO2 incubator for 5 minutes for glutamic acid, 45 minutes for kainic acid and 10 minutes for NMDA exposure, after which time the media was replaced with 100 μl of 50% Neurobasal/2% N2 supplement (Invitrogen) and 50% balanced salt solution (BSS; see below). Cultures were incubated for a further 24 hours at 37° C. in the CO2 incubator. The untreated controls with or without glutamic acid or kainic acid treatment received the same wash steps and media additions.
Following this step, cultures were treated as described above. Untreated controls with or without glutamic acid exposure received the same wash steps and media additions. In addition, a post-glutamic acid exposure CPP treatment (5 μM) experiment was performed for the R9 peptide and the JNKI-1D-TAT control peptide.
For pre-glutamic acid exposure experiments, neurons were exposed to peptide(s) for a 10 minute period, immediately before or 1, 2, 3, 4 or 5 hours prior to glutamic acid exposure. […] At the relevant peptide pre-treatment time, media was removed and replaced with 100 μl of Neurobasal/2%. […] Following 5-minute glutamic acid exposure, neuronal culture wells were treated as described above. For all experiments untreated controls with or without glutamic acid treatment underwent the same incubation steps and media additions.
Heparin (for injection) was obtained from Pfizer (1000 IU/ml). Two different heparin experiments were performed: 1. Peptides were incubated with heparin (20 IU/ml) in Neurobasal/B27 for 5 minutes at room temperature, before addition to culture wells (50 μl) for 15 minutes at 37° C. in the CO2 incubator. Following the incubation period, media in wells was removed and replaced with 100 μl of Neurobasal/2% B27 containing glutamic acid (100 μM), and subsequently treated as described above; 2. Media in wells was replaced with Neurobasal/2% B27 containing heparin (50 μl; 40 IU/ml) and incubated for 5 minutes at 37° C. in the CO2 incubator. After the incubation period, peptides or glutamate receptor blockers (MK801/CNQX) in Neurobasal/2% B27 (50 μl) were added to the culture wells and cultures incubated for a further 10 minutes at 37° C. in the CO2 incubator. Following the incubation period, media in wells was removed and replaced with 100 μl of Neurobasal/2% B27 containing glutamic acid (100 μM), and subsequently treated as described above. For all experiments, non-heparin treated peptide controls with glutamic acid treatment underwent the same incubation steps and media additions.
Twenty-four hours after insult, neuronal cultures were examined by light microscopy for qualitative assessment of neuronal cell viability.

[3] = tested on: primary cortical neuronal cultures; assay: NMDA excitotoxicity model; assay type: cell-based, rat; details: peptide 15 min before and during NMDA exposure (FIG. 37)
Experimental: Establishment of cortical cultures was as previously described (Meloni et al. 2001). Briefly, cortical tissue from E18-E19 Sprague-Dawley rats was dissociated in Dulbecco's modified Eagle medium (DMEM; Invitrogen, Australia) supplemented with 1.3 mM L-cysteine, 0.9 mM NaHCOa, 10 units/ml papain (Sigma, USA) and 50 units/ml DNase (Sigma) and washed in cold DMEM/10% horse serum. Neurons were resuspended in Neurobasal (Invitrogen) containing 2% B27 supplement (B27; Invitrogen). Before seeding, 96-well sized glass wells (6 mm diameter, ProTech, Australia) or 96-well plastic plates (ProSciTech, Australia) were coated with poly-D-lysine overnight ([…]: 50 mg/mL; 70-150 K, Sigma). […]
Twenty-four hours after insult, neuronal cultures were examined by light microscopy for qualitative assessment of neuronal cell viability. Neuronal viability was quantitatively measured by 3-(4,5,dimethyliazol-2-yl)-5-(3-carboxymethoxy-phenyl)-2-(4-sulfophenyl)-2H-tetrazolium salt (MTS) assay (Promega, Australia). The MTS assay measures the cellular conversion of the tetrazolium salt to a water-soluble brown formazan salt, which is detected spectrophotometrically at 490 nm. MTS absorbance data were converted to reflect proportional cell viability relative to both the untreated and treated controls, with the untreated control taken as 100% viability, and presented as mean±SEM. […]

[4] = tested on: primary cortical neuronal cultures; details: values from Meade et al. (2010a,b); read-out: IC50: Glutamic acid model; cited from earlier work
[5] = tested on: primary cortical neuronal cultures; details: FIG. 2
Experimental: Establishment of cortical cultures was as previously described (Meloni et al. 2001). Briefly, cortical tissue from E18-E19 Sprague-Dawley rats was dissociated in Dulbecco's modified Eagle medium (DMEM; Invitrogen, Australia) supplemented with 1.3 mM L-cysteine, 0.9 mM NaHCOa, 10 units/ml papain (Sigma, USA) and 50 units/ml DNase (Sigma) and washed in cold DMEM/10% horse serum. Neurons were resuspended in Neurobasal (Invitrogen) containing 2% B27 supplement (B27; Invitrogen). Before seeding, 96-well sized glass wells (6 mm diameter, ProTech, Australia) or 96-well plastic plates (ProSciTech, Australia) were coated with poly-D-lysine overnight ([…]: 50 mg/mL; 70-150 K, Sigma). Excess poly-D-lysine solution was then removed and replaced with Neurobasal (containing 2% B27; 4% fetal bovine serum; 1% horse serum; […] glutamate; […] 2-mercaptoethanol; and […]). Neurons were plated to obtain ≈10,000 viable neurons for each well on day in vitro 11-12. Neuronal cultures were maintained in a CO2 incubator (5% CO2, 95% air balance, 98% humidity) at 37° C. On day in vitro 4 one third of the culture medium was removed and replaced with fresh Neurobasal/2% B27 containing the mitotic inhibitor, cytosine arabinofuraNOside (1 mM final concentration; Sigma). On day in vitro 8 one half of the culture medium was replaced with Neurobasal/2% B27. Cultures were used on day in vitro 11 or 12 after which time they routinely consist of >97% neurons and 1-3% astrocytes (Meloni et al. 2001).
as §1, with “Peptides were added to culture wells (96-well plate format) 15 minutes prior to glutamic acid or kainic acid exposure by removing media and adding 50 μl of Neurobasal/2% 327 containing CPPs, control peptides or MK801/CNQX. To” for “To”
Twenty-four hours after insult, neuronal cultures were examined by light microscopy for qualitative assessment of neuronal cell viability. Neuronal viability was quantitatively measured by 3-(4,5,dimethyliazol-2-yl)-5-(3-carboxymethoxy-phenyl)-2-(4-sulfophenyl)-2H-tetrazolium salt (MTS) assay (Promega, Australia). The MTS assay measures the cellular conversion of the tetrazolium salt to a water-soluble brown formazan salt, which is detected spectrophotometrically at 490 nm. MTS absorbance data were converted to reflect proportional cell viability relative to both the untreated and treated controls, with the untreated control taken as 100% viability, and presented as mean±SEM. For studies using astrocytes, bEND3, and SH-Y5Y cells, raw MTS data was used to generate graphs. Viability data was analysed by ANOVA, followed by post-hoc Fischer's PLSD test, with P<0.05 values considered statistically significant. Four- to six wells were used in all assays.

[6] = tested on: primary cortical neuronal cultures; assay: In vitro ischemia / oxygen-glucose deprivation (OGD) model, neurons; assay type: cell-based, rat; details: peptide present during in vitro ischemia and at 50% dose after (FIG. 3a)
Experimental: Establishment of cortical cultures was as previously described (Meloni et al. 2001). Briefly, cortical tissue from E18-E19 Sprague-Dawley rats was dissociated in Dulbecco's modified Eagle medium (DMEM; Invitrogen, Australia) supplemented with 1.3 mM L-cysteine, 0.9 mM NaHCOa, 10 units/ml papain (Sigma, USA) and 50 units/ml DNase (Sigma) and washed in cold DMEM/10% horse serum. Neurons were resuspended in Neurobasal (Invitrogen) containing 2% B27 supplement (B27; Invitrogen). Before seeding, 96-well sized glass wells (6 mm diameter, ProTech, Australia) or 96-well plastic plates (ProSciTech, Australia) were coated with poly-D-lysine overnight (50 ml/well: 50 mg/mL; 70-150 K, Sigma). Excess poly-D-lysine solution was then removed and replaced with Neurobasal (containing 2% B27; 4% fetal bovine serum; 1% horse serum; 62.5 mM glutamate; 25 mM 2-mercaptoethanol; and 30 mg/mL streptomycin and 30 mg/mL penicillin). Neurons were plated to obtain ≈10,000 viable neurons for each well on day in vitro 11-12. Neuronal cultures were maintained in a CO2 incubator (5% CO2, 95% air balance, 98% humidity) at 37° C. On day in vitro 4 one third of the culture medium was removed and replaced with fresh Neurobasal/2% B27 containing the mitotic inhibitor, cytosine arabinofuraNOside (1 mM final concentration; Sigma). On day in vitro 8 one half of the culture medium was replaced with Neurobasal/2% B27. Cultures were used on day in vitro 11 or 12 after which time they routinely consist of >97% neurons and 1-3% astrocytes (Meloni et al. 2001).
The in vitro ischemia model used for primary cortical neuronal cultures was performed as previously described (Meloni et at 2011) Briefly, culture media was removed from wells (glass 96-well plate format) and washed with 315 μl of glucose free balanced salt solution (BSS; mM: 116 NaCl, 5.4 KCl, 1.8 CaCl2, 0.8 MgSO4, 1 NaH2PO4; pH 6.9) before the addition of 60 μl BSS containing cell penetrating or control peptides (see Table 1). A non-peptide positive control consisting of the glutamate receptor blockers (5 μM MK801/5 μM 6-cyano-7-nitroquinoxaline: MK801/CNQX) was also included. In vitro ischemia was initiated by placing wells in an anaerobic incubator (Don Whitely Scientific, England; atmosphere of 5% CO2, 10% H2 and 85% argon, 98% humidity) at 37° C. for 55 minutes. Upon removal from the anaerobic incubator, 60 μl of Neurobasal/2% N2 supplement was added to the wells and cultures incubated for a further 24 hours at 37° C. in the CO2 incubator. Control cultures received the same BSS wash procedures and media additions as ischemic treated cultures before incubation at 37° C. in the CO2 incubator.
Control cultures underwent the same BSS wash procedures and media additions as OGD treated cultures.
Twenty-four hours after insult, neuronal cultures were examined by light microscopy for qualitative assessment of neuronal cell viability. Neuronal viability was quantitatively measured by 3-(4,5,dimethyliazol-2-yl)-5-(3-carboxymethoxy-phenyl)-2-(4-sulfophenyl)-2H-tetrazolium salt (MTS) assay (Promega, Australia). The MTS assay measures the cellular conversion of the tetrazolium salt to a water-soluble brown formazan salt, which is detected spectrophotometrically at 490 nm. MTS absorbance data were converted to reflect proportional cell viability relative to both the untreated and treated controls, with the untreated control taken as 100% viability, and presented as mean±SEM. […] Viability data was analysed by ANOVA, followed by post-hoc Fischer's PLSD test, with P<0.05 values considered statistically significant. Four- to six wells were used in all assays.

[7] = tested on: primary cortical neuronal cultures; details: values from Meade et al. (2010a,b); read-out: IC50: Kainic acid model; cited from earlier work

H-GRKKRRQRRR-KLSSIESDV-NH2 (H-GRKKRRQRRRKLSSIESDV-NH2) [NR2B9c-TAT, reference compound]
calcium influx after glutamic acid [1]: to varying degrees reduced calcium influx | neuroprotection when added immediately after glutamic acid exposure [2]: did not significantly increase neuronal survival | neuroprotection when added 15 minutes post-insult [2]: did not significantly increase neuronal survival | neuroprotection, milder insult ([2]; FIG. 1i, comparison at 0.5 μM and 1 μM): ineffective | neuroprotection (neuronal viability) ([2]; listed as TAT-NR29C): ineffective | neuroprotection [3]: low level neuroprotection

GRKKRRQRRRGGLQGRRRQGYQSIKP [PYC36L-TAT, reference compound]
calcium influx after glutamic acid [1]: to varying degrees reduced calcium influx | IC50 [4]: 1500 nM | effect of heparin on neuroprotective action ([2]; heparin 20 IU/ml with peptide or 40 IU/ml on cultures (FIGS. 39, 40)): blocks neuroprotective actions | neuroprotection (neuronal viability) [2]: highly effective | neuroprotection [5]: effective | neuroprotection [6]: effective

H-tdqsrpvqpflnlttprkprpp-rrrqrrkkrG-NH2 (H-[dT][dD][dQ][dS][dR][dP][dV][dQ][dP][dF][dL][dN][dL][dT][dT][dP][dR][dK][dP][dR][dP][dP][dR][dR][dR][dQ][dR][dR][dK][dK][dR]G-NH2; SMILES CC(C)C[C@@H](NC(=O)[C@@H](Cc1ccccc1)NC(=O)[C@H]1CCCN1C(=O)[C@@H](CCC(N)=O)NC(=O)[C@H](NC(=O)[C@H]1CCCN1C(=O)[C@@H](CCCNC(=N)N)NC(=O)[C@@H](CO)NC(=O)[C@@H](CCC(N)=O)NC(=O)[C@@H](CC(=O)O)NC(=O)[C@H](N)[C@H](C)O)C(C)C)C(=O)N[C@H](CC(N)=O)C(=O)N[C@H](CC(C)C)C(=O)N[C@@H](C(=O)N[C@@H](C(=O)N1CCC[C@@H]1C(=O)N[C@H](CCCNC(=N)N)C(=O)N[C@H](CCCCN)C(=O)N1CCC[C@@H]1C(=O)N[C@H](CCCNC(=N)N)C(=O)N1CCC[C@@H]1C(=O)N1CCC[C@@H]1C(=O)N[C@H](CCCNC(=N)N)C(=O)N[C@H](CCCNC(=N)N)C(=O)N[C@H](CCCNC(=N)N)C(=O)N[C@H](CCC(N)=O)C(=O)N[C@H](CCCNC(=N)N)C(=O)N[C@H](CCCNC(=N)N)C(=O)N[C@H](CCCCN)C(=O)N[C@H](CCCCN)C(=O)N[C@H](CCCNC(=N)N)C(=O)NCC(N)=O)[C@H](C)O)[C@H](C)O) [JNKI-1D-TAT, reference compound]
calcium influx after glutamic acid [1]: to varying degrees reduced calcium influx | IC50 [4]: 2100 nM | neuroprotection when added immediately after glutamic acid exposure [2]: ineffective | neuroprotection when added immediately after glutamic acid exposure ([2]; listed as JNKI-1 D-TAT): did not significantly increase neuronal survival | neuroprotection when added 15 minutes post-insult [2]: ineffective | neuroprotection when added 15 minutes post-insult ([2]; listed as JNKI-1 D-TAT): did not significantly increase neuronal survival | neuroprotection (neuronal viability) [2]: highly effective | neuroprotection (neuronal viability) ([2]; listed as JNKI-1-TATD): neuroprotective | neuroprotection [5]: effective | IC50 [7]: 6.5 µM
